In publication PMC6372279 (eLife, 2019):
Bridge positions count the residues as written; N and C are the ends. Square brackets hold non-standard residues; d marks the D form. Ends that are not written are not given here. I, II: the chains in the order shown. Gla = N[C@@H](CC(C(=O)O)C(=O)O)C(=O)O

Assays:
[1] = target: human IR-B (Homo sapiens, UniProt P06213); assay: cell-based
[2] = target: human insulin receptor isoform B (hIR-B) (Homo sapiens, UniProt P06213); assay: biochemical; format: binding
[3] = test system: STZ-induced hyperglycemic mice; details: mouse, in vivo

Sequence of human IR-B (P06213 28-758 limits assumed): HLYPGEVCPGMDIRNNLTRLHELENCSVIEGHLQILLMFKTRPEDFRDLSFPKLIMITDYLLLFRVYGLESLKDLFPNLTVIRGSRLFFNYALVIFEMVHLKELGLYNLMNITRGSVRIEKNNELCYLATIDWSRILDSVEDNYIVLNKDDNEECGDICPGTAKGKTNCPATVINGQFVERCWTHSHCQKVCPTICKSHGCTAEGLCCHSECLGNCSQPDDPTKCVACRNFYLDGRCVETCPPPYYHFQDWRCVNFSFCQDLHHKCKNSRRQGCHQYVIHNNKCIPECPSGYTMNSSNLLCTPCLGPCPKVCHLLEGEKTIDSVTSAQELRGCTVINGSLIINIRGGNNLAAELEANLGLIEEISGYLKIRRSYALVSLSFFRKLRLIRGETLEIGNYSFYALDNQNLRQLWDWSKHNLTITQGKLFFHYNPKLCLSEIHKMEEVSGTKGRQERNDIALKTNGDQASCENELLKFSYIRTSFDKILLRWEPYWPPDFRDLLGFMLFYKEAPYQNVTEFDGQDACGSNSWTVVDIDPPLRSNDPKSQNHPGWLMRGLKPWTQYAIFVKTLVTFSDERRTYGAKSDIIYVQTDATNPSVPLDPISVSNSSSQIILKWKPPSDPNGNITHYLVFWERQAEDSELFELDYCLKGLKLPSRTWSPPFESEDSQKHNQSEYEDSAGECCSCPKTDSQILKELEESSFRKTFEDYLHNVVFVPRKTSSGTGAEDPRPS
Sequence of human IR-B (P06213 763-1382 partner limits assumed): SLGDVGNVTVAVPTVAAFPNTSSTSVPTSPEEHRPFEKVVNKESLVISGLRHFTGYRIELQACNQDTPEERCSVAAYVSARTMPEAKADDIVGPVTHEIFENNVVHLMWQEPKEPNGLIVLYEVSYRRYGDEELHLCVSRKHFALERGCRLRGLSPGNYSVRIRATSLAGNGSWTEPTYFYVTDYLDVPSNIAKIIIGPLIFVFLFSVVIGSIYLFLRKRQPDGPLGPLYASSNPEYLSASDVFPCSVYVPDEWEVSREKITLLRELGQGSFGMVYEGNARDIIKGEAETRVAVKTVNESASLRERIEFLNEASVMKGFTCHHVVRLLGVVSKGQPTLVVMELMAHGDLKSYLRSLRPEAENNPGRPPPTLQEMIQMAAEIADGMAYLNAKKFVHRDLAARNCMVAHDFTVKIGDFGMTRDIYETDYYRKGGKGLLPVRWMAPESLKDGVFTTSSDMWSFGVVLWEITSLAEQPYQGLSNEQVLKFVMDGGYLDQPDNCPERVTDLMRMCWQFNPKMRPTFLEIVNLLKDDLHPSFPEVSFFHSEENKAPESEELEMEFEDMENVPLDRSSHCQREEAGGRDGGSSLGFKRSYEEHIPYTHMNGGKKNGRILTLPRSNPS
Sequence of human insulin receptor isoform B (hIR-B) (P06213 28-758 limits assumed): as the sequence (P06213 28-758 limits assumed) above
Sequence of human insulin receptor isoform B (hIR-B) (P06213 763-1382 partner limits assumed): as the sequence (P06213 763-1382 partner limits assumed) above

## I: NSDTPKHRCGSELADQYVQLCH-NH2 / II: GIV[Gla]VCCDNPCTVATLRTFCH-OH (disulfide I:9-II:7, I:21-II:20, II:6-II:11) [Con-Ins G3]
[1]
  potency against the human IR-B compared with Con-Ins G1 (in words): more than one order of magnitude less potent

## I: NSDTPWNRCGSQITDSYR[Gla]LCPH / II: GVV[Gla]HCCKRACSNA[Gla]FMQFC-NH2 (disulfide I:9-II:7, I:21-II:20, II:6-II:11) [Con-Ins T2]
[2]
  IC50: 31.8 nM
[1]
  EC50: 15.5 nM

## I: SDSGTTLVRRRLCGS[Gla]LVTYLGELCLGN / II: GIV[Gla]DCCYNDCTDEKLKEYCHTLQ-NH2 (disulfide I:13-II:7, I:25-II:20, II:6-II:11) [Con-Ins K1]
[3]
  Reversal of hyperglycemia (in words): effectively reversed hyperglycemia
[3]; SEM
  Blood glucose, starting value: 404 (±25) mg/dL
